Results as given in paper PMC11345841, “Exploring 2-Sulfonylpyrimidine Warheads as Acrylamide Surrogates for Targeted Covalent Inhibition: A BTK Story” (Journal of Medicinal Chemistry, 2024).
Where two headings read alike, the source gives them in different places.

Assays:
Experiment in all cases: KINOMEscan ScanTK
Type in all cases: binding
[1] = target: T1, ABL1(Q252H)-nonphosphorylated (Homo sapiens, UniProt P00519, Q252H)
T1 construct: purchased Eurofins DiscoverX KINOMEscan (scanTK)

BMX = target: T2, BMX (Homo sapiens, UniProt P51813)
T2 construct: purchased Eurofins DiscoverX KINOMEscan (scanTK)
T2 sequence (P51813 1-675): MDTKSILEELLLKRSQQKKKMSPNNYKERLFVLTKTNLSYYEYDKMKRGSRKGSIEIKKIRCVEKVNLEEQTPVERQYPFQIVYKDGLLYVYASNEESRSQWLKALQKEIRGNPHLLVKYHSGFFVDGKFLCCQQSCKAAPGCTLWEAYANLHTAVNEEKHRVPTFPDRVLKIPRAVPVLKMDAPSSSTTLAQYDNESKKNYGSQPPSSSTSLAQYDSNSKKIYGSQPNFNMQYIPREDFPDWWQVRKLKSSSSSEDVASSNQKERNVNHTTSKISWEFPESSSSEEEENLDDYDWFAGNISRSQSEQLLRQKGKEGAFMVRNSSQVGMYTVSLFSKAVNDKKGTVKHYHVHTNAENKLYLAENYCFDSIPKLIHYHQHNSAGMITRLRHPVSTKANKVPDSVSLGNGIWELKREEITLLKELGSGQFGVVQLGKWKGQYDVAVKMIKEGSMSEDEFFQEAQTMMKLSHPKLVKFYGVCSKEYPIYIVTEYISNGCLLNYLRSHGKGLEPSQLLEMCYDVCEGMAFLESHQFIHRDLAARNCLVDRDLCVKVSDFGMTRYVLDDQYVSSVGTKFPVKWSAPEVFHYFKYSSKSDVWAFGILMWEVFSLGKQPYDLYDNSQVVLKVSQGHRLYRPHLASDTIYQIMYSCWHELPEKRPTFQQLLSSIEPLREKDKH

EGFR = target: T3, EGFR (Homo sapiens, UniProt P00533); conditions: for difference in %Control versus reference compound Ib at 1 µM / remaining binding at 1 µM: EGFR; for inhibition at 1 µM: ScanTK, WT EGFR
T3 construct: purchased Eurofins DiscoverX KINOMEscan (scanTK)

EGFR(S752-I759del) = target: T4, EGFR(S752-I759del) (Homo sapiens, UniProt P00533, DEL752-759)
T4 construct: purchased Eurofins DiscoverX KINOMEscan (scanTK)
T4 sequence (P00533 with tags, fused parts or gaps DEL752-759 limits assumed): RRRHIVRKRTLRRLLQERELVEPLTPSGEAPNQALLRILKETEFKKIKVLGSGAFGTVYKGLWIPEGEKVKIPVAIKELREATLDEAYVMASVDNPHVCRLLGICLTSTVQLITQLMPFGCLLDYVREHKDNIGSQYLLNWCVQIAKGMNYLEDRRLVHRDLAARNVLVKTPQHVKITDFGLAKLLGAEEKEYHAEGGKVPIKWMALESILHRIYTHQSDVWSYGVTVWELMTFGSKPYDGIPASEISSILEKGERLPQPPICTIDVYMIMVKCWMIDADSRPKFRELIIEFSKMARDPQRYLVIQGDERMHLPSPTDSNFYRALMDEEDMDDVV

EPHA3 = target: T5, EPHA3 (Homo sapiens, UniProt P29320)
T5 construct: purchased Eurofins DiscoverX KINOMEscan (scanTK)
T5 sequence (P29320 21-983): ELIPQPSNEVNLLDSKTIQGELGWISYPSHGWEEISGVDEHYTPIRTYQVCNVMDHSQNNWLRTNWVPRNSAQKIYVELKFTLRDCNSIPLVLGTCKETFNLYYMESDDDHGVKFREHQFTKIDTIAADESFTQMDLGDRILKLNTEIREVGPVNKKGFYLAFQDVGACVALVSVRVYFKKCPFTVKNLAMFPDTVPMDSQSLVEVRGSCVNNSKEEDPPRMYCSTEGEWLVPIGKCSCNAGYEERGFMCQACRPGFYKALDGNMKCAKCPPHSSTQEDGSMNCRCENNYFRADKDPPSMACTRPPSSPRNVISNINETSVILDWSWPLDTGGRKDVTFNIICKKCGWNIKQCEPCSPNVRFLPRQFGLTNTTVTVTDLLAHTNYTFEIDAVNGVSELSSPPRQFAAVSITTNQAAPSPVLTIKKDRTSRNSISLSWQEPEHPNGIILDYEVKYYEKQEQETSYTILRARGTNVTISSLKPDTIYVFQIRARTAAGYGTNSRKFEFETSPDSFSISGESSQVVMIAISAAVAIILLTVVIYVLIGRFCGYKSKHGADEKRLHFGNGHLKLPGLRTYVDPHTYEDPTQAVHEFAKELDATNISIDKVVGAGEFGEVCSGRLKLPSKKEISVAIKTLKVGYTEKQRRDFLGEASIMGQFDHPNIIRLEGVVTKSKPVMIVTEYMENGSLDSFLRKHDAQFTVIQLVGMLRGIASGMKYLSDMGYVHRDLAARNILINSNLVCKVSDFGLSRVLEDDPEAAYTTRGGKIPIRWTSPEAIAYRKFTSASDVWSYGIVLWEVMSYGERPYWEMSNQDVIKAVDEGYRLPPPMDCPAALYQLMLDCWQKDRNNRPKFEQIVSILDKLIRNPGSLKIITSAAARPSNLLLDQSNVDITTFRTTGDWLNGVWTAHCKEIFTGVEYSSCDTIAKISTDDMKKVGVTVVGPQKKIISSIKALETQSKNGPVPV

FGFR4 = target: T6, FGFR4 (Homo sapiens, UniProt P22455)
T6 construct: purchased Eurofins DiscoverX KINOMEscan (scanTK)
T6 sequence (P22455 22-802): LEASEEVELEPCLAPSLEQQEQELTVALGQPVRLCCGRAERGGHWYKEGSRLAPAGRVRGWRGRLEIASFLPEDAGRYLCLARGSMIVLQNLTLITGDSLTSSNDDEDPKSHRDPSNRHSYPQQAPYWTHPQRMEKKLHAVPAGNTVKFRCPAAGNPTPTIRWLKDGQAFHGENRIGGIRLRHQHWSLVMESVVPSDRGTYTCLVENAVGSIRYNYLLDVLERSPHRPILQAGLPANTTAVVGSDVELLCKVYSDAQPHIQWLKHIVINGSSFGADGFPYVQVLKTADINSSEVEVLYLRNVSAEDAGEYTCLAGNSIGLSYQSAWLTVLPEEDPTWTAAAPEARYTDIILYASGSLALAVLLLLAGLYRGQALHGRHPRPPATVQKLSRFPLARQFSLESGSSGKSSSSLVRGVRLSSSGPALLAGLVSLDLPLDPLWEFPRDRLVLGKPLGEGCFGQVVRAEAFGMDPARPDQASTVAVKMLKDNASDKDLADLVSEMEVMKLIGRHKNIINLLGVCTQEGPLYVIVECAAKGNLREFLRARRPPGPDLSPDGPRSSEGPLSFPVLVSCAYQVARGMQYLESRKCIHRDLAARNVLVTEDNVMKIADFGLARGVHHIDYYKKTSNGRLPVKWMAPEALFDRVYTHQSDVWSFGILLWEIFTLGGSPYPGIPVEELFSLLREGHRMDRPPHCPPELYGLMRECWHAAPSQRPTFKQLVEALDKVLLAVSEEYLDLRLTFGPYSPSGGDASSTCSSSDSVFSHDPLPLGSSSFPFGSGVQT

INSRR = target: T7, INSRR (Homo sapiens, UniProt P14616)
T7 construct: purchased Eurofins DiscoverX KINOMEscan (scanTK)

KIT(L576P) = target: T8, KIT(L576P) (Homo sapiens, UniProt P10721, L576P); conditions: for difference in %Control versus Ib at 1 µM: read-out: % difference (compound - Ib %Control)
T8 construct: purchased Eurofins DiscoverX KINOMEscan (scanTK)
T8 sequence (P10721 26-976 L576P): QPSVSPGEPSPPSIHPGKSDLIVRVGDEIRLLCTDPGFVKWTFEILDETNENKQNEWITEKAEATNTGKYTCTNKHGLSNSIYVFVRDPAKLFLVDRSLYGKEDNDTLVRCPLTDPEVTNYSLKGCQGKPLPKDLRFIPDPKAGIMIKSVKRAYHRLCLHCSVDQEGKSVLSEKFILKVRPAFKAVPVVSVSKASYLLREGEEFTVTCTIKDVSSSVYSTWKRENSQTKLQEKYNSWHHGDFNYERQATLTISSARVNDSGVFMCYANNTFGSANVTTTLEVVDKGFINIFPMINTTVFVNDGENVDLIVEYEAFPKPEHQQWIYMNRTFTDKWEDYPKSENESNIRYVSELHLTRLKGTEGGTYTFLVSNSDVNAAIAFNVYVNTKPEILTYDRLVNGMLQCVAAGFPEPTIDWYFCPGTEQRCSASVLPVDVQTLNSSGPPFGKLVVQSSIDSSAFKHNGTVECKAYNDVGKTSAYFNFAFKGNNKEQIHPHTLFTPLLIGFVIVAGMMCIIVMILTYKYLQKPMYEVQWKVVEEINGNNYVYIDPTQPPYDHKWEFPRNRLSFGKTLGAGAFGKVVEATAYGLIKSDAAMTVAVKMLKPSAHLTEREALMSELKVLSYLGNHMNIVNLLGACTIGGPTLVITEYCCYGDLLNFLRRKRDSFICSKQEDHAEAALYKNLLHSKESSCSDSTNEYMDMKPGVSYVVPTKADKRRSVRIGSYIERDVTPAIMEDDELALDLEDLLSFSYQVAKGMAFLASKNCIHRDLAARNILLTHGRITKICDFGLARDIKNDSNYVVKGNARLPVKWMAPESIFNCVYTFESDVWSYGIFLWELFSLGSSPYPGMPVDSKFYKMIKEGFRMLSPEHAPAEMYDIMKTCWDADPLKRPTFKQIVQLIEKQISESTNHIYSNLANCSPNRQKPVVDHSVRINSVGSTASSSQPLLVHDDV

LCK = target: T9, LCK (Homo sapiens, UniProt P06239)
T9 construct: purchased Eurofins DiscoverX KINOMEscan (scanTK)
T9 sequence (P06239 whole entry): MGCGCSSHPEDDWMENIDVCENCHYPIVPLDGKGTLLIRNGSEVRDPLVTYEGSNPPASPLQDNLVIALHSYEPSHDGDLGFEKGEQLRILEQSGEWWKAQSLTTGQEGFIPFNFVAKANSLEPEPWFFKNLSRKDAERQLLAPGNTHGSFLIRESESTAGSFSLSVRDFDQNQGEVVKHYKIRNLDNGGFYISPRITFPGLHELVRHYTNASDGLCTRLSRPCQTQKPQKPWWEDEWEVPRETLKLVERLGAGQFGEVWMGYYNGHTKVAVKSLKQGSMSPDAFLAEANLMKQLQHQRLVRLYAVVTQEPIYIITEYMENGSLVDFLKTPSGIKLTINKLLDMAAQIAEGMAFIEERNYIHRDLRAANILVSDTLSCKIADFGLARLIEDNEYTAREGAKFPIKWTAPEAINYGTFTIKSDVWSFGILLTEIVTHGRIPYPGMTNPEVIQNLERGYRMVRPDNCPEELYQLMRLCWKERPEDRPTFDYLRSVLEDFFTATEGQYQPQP

PDGFRB = target: T10, PDGFRB (Homo sapiens, UniProt P09619)
T10 construct: purchased Eurofins DiscoverX KINOMEscan (scanTK)
T10 sequence (P09619 33-1106): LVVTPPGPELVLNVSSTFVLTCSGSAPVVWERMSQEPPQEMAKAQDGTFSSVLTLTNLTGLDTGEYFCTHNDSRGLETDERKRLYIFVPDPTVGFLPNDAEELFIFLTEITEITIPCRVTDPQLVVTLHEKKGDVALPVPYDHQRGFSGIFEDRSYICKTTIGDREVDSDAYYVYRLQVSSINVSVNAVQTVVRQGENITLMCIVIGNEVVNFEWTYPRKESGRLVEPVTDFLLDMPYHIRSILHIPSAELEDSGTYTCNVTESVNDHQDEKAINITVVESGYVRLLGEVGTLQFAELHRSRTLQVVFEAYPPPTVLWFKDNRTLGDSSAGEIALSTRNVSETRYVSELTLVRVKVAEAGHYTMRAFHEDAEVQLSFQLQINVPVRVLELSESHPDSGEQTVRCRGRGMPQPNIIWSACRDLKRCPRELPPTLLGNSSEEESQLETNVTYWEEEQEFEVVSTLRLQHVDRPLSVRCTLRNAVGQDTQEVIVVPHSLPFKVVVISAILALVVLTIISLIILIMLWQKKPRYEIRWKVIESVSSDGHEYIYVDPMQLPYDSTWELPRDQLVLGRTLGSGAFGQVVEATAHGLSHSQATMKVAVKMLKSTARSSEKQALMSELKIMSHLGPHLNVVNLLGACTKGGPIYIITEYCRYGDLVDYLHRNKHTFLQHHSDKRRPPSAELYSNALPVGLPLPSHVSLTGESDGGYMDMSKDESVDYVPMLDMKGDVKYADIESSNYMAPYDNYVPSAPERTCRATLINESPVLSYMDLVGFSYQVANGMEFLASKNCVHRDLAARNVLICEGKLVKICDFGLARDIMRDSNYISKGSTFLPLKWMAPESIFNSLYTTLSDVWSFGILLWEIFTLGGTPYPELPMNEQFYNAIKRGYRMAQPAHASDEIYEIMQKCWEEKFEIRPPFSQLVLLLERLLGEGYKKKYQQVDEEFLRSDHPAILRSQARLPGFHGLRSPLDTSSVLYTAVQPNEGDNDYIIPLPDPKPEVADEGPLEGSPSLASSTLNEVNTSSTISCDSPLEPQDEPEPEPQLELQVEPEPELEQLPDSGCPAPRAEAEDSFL

RET(M918T) = target: T11, RET(M918T) (Homo sapiens, UniProt P07949, M918T)
T11 construct: purchased Eurofins DiscoverX KINOMEscan (scanTK)
T11 sequence (P07949 29-1114 M918T): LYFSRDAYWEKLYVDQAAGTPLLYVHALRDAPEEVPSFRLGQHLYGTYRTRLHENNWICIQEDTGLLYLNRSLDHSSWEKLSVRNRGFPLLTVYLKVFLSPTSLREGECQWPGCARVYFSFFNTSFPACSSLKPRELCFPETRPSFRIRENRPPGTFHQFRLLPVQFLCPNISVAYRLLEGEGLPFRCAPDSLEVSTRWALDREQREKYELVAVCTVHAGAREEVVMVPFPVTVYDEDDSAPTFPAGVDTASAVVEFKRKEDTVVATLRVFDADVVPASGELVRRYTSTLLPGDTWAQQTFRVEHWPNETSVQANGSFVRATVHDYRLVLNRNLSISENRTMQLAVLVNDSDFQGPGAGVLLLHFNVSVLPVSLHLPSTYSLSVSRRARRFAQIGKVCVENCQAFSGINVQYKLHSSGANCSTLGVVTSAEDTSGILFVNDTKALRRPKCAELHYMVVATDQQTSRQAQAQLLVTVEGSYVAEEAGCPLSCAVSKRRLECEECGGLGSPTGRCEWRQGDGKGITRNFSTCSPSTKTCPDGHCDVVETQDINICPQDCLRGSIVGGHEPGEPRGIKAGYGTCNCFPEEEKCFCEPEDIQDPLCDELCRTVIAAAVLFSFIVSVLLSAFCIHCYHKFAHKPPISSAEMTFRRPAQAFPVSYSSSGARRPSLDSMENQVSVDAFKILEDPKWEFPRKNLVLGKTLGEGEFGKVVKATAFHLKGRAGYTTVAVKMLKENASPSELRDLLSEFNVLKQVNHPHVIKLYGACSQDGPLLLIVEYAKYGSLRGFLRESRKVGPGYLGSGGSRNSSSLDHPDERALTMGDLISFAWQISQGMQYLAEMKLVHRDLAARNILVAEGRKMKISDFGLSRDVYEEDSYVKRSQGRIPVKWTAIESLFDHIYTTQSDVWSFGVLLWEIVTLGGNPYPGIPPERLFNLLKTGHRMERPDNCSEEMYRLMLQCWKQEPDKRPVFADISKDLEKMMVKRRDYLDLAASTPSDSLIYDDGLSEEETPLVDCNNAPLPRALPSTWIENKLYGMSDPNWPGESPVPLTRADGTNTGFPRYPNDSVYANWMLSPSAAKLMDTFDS

Compound	difference in %Control versus reference compound Ib at 1 µM ([1]; @1000nM)	remaining binding at 1 µM ([1]; @1000nM, read-out: %Control)	remaining binding at 1 µM ([1]; read-out: %Control @1000nM)	difference in %Control versus compound Ib at 1 µM (BMX; @1000nM)	remaining binding at 1 µM (BMX; @1000nM, read-out: %Control)	remaining binding at 1 µM (BMX; read-out: %Control @1000nM)	difference in %Control versus reference compound Ib at 1 µM (EGFR; @1000nM)	remaining binding at 1 µM (EGFR; @1000nM, read-out: %Control)	remaining binding at 1 µM (EGFR; read-out: %Control @1000nM)	inhibition at 1 µM (EGFR)	remaining binding at 1 µM (EPHA3; @1000nM, read-out: %Control)	remaining binding at 1 µM (EPHA3; read-out: %Control @1000nM)	remaining binding at 1 µM (FGFR4; @1000nM, read-out: %Control)	remaining binding at 1 µM (FGFR4; read-out: %Control @1000nM)	remaining binding at 1 µM (KIT(L576P); @1000nM, read-out: %Control)	remaining binding at 1 µM (KIT(L576P); read-out: %Control @1000nM)	remaining binding at 1 µM (PDGFRB; @1000nM, read-out: %Control)	remaining binding at 1 µM (PDGFRB; read-out: %Control @1000nM)	remaining binding at 1 µM (RET(M918T); @1000nM, read-out: %Control)	remaining binding at 1 µM (RET(M918T); read-out: %Control @1000nM)	further results
COC(=O)c1cnc(S(C)(=O)=O)nc1N1CCCC(n2nc(-c3ccc(Oc4ccccc4)cc3)c3c(N)ncnc32)C1 (centres unmarked) [Compound 8b, Methyl 4-(3-(4-Amino-3-(4-phenoxyphenyl)-1H-pyrazolo[3,4-d]pyrimidin-1-yl)piperidin-1-yl)-2-(methylsulfonyl)pyrimidine-5-carboxylate]	52%	65%	65%	12%	53%	53%	32.8%	33%	33%	67%	77%	77%	92%	92%	56%	56%	68%	68%	49%	49%	difference in %Control versus compound Ib at 1 µM (EGFR(S752-I759del); @1000nM): 80%; remaining binding at 1 µM (EGFR(S752-I759del); @1000nM, read-out: %Control): 82%; remaining binding at 1 µM (EGFR(S752-I759del); read-out: %Control @1000nM): 82%; difference in % of control versus compound Ib at 1 µM (EPHA3; @1000nM): 1%; difference in %Control from compound Ib at 1 µM (FGFR4; @1000nM): -4%; difference in %Control versus compound Ib at 1 µM (INSRR; @1000nM): 0%; remaining binding at 1 µM (INSRR; @1000nM, read-out: %Control): 96%; remaining binding at 1 µM (INSRR; read-out: %Control @1000nM): 96%; difference in %Control versus Ib at 1 µM (KIT(L576P); @1000nM): 24%; remaining binding at 1 µM (LCK; @1000nM, read-out: %Control): 8.3%; remaining binding at 1 µM (LCK; read-out: %Control @1000nM): 8.3%
CNC(=O)c1cnc(S(C)(=O)=O)nc1N1CCCC(n2nc(-c3ccc(Oc4ccccc4)cc3)c3c(N)ncnc32)C1 (centres unmarked) [Compound 8d, 4-(3-(4-Amino-3-(4-phenoxyphenyl)-1H-pyrazolo[3,4-d]pyrimidin-1-yl)piperidin-1-yl)-N-methyl-2-(methylsulfonyl)pyrimidine-5-carboxamide]	13%	26%	26%	20%	61%	61%	16.8%	17%	17%	83%	84%	84%	100%	100%	45%	45%	77%	77%	32%	32%	difference in %Control versus compound Ib at 1 µM (EGFR(S752-I759del); @1000nM): 67%; remaining binding at 1 µM (EGFR(S752-I759del); @1000nM, read-out: %Control): 69%; remaining binding at 1 µM (EGFR(S752-I759del); read-out: %Control @1000nM): 69%; difference in % of control versus compound Ib at 1 µM (EPHA3; @1000nM): 8%; difference in %Control from compound Ib at 1 µM (FGFR4; @1000nM): 4%; difference in %Control versus compound Ib at 1 µM (INSRR; @1000nM): -8%; remaining binding at 1 µM (INSRR; @1000nM, read-out: %Control): 88%; remaining binding at 1 µM (INSRR; read-out: %Control @1000nM): 88%; difference in %Control versus Ib at 1 µM (KIT(L576P); @1000nM): 13%; remaining binding at 1 µM (LCK; @1000nM, read-out: %Control): 4%; remaining binding at 1 µM (LCK; read-out: %Control @1000nM): 4%
C=CC(=O)N1CCC[C@@H](n2nc(-c3ccc(Oc4ccccc4)cc3)c3c(N)ncnc32)C1 [Compound 1g, Ibrutinib, reference compound]	–	13%	13%	–	–	–	–	–	–	–	76%	76%	96%	96%	32%	32%	25%	25%	14%	14%	–
